Measured values taken from DBAASP.
In brackets after ≈: the same amount, converted by molar mass.

Legend:
Assay in all cases: ≥ marks a high value that may be exact or a test limit, other limits are often not marked, values filed in µg/mL are converted to µM
[1] = test system: Mycobacterium tuberculosis H37Rv
[2] = test system: Acinetobacter baumannii Ab5753
[3] = test system: Candida albicans ATCC 90028
[4] = test system: Escherichia coli ATCC 25922
Escherichia coli Ec513 = test system: Escherichia coli Ec513
[5] = test system: Pseudomonas aeruginosa Pa1409
[6] = test system: Staphylococcus aureus NCTC 8325
[7] = test system: Staphylococcus aureus Sa1390
Escherichia coli K88 = test system: Escherichia coli K88
[8] = test system: Escherichia coli O157:H7 CICC 21530
[9] = test system: Lacticaseibacillus rhamnosus 1.0911
[10] = test system: Lacticaseibacillus rhamnosus 1.0936
[11] = test system: Lacticaseibacillus rhamnosus 1.9021
[12] = test system: Lacticaseibacillus rhamnosus 8014
[13] = test system: Pseudomonas aeruginosa ATCC 27853
[14] = test system: Pseudomonas aeruginosa PAO1
[15] = test system: Salmonella enterica subsp. enterica serovar Choleraesuis CVCC 503
[16] = test system: Salmonella enterica subsp. enterica serovar Pullorum C79-13
[17] = test system: Salmonella enterica subsp. enterica serovar Typhimurium ATCC 14028
[18] = test system: Staphylococcus aureus ATCC 29213
[19] = test system: Staphylococcus aureus ATCC 43300
[20] = test system: Staphylococcus epidermidis ATCC 12228
[21] = test system: Streptococcus agalactiae BNCC 185941
Bacillus cereus AS1.126 = test system: Bacillus cereus AS1.126
[22] = test system: Enterobacter cloacae CGMCC 1.58
[23] = test system: Enterococcus faecalis CGMCC 1.595
[24] = test system: Enterococcus faecium CGMCC 1.2334
Escherichia coli AS1.349 = test system: Escherichia coli AS1.349
[25] = test system: Klebsiella aerogenes CGMCC 1.876
[26] = test system: Klebsiella pneumoniae subsp. pneumoniae CGMCC 1.176
[27] = test system: Lactococcus lactis AS1.1690
[28] = test system: Pseudomonas aeruginosa CGMCC 1.860
[29] = test system: Staphylococcus aureus AS1.72
Escherichia coli INV-a = test system: Escherichia coli INV-a
[30] = test system: Lactococcus lactis MG1363
[31] = test system: Bacillus cereus ATCC 11778
[32] = test system: Bacillus thuringiensis ATCC 10792
[33] = test system: Cryptococcus gattii ATCC 56990
[34] = test system: Cryptococcus neoformans ATCC 90112
[35] = test system: Enterococcus faecium CCT 5079
[36] = test system: Enterococcus hirae ATCC 10541
[37] = test system: Escherichia coli ATCC 11775
[38] = test system: Escherichia coli CCT 1457
[39] = test system: Micrococcus luteus ATCC 4698
[40] = test system: Paracoccidioides brasiliensis
[41] = test system: Paracoccidioides lutzii ATCC MYA-826
[42] = test system: Pseudomonas aeruginosa ATCC 13388
[43] = test system: Pseudomonas aeruginosa ATCC 15422
[44] = test system: Salmonella enterica subsp. enterica serovar Choleraesuis ATCC 10708
[45] = test system: Staphylococcus aureus ATCC 25923
[46] = test system: Staphylococcus aureus CCT 2580
[47] = test system: Staphylococcus aureus CCT 6538
[48] = test system: Streptococcus mutans AU159
[49] = test system: Streptococcus pneumoniae ATCC 11733

`CC(C)C[C@H](NC(=O)[C@H](C)N)C(=O)N[C@@H](CCCCN)C(=O)N[C@@H](CCCCN)C(=O)N[C@@H](CC(C)C)C(=O)N[C@H](C(=O)N[C@@H](CCCN=C(N)N)C(=O)N[C@@H](Cc1c[nH]c2ccccc12)C(=O)N[C@@H](Cc1c[nH]c2ccccc12)C(=O)N[C@@H](CCCCN)C(=O)N[C@@H](CCCN=C(N)N)C(=O)N[C@@H](Cc1c[nH]c2ccccc12)C(=O)N[C@@H](Cc1c[nH]c2ccccc12)C(=O)N[C@@H](CO)C(=O)N[C@@H](CCCCN)C(=O)O)C(C)C` [ALKKLVRWWKRWWSK] was tested, and the MIC [1] was 18.1 µM (≈ 37.5 µg/mL).
`CC[C@H](C)[C@H](NC(=O)[C@H](CC(C)C)NC(=O)[C@H](C)NC(=O)[C@@H]1CCCN1C(=O)[C@H](Cc1ccccc1)NC(=O)[C@H](C)NC(=O)[C@H](CCCCN)NC(=O)[C@H](CCSC)NC(=O)[C@H](CC(C)C)NC(=O)CNC(=O)CNC(=O)[C@H](CC(C)C)NC(=O)[C@@H](N)Cc1ccccc1)C(=O)N[C@H]1CSSC[C@@H](C(=O)O)NC(=O)[C@H](CCCCN)NC(=O)[C@H](CCCCN)NC(=O)[C@H]([C@@H](C)O)NC(=O)[C@H](C(C)C)NC(=O)[C@H](C)NC1=O` [FLGGLMKAFPALICAVTKKC] was tested, and the MIC [2] was no less than 60.6 µM, the MIC [3] was 14 µM (≈ 29.5 µg/mL) and the MIC [4] was 4 µM (≈ 8.44 µg/mL). It also gave an MIC (Escherichia coli Ec513) of no less than 60.6 µM, an MIC [5] of no less than 60.6 µM and an MIC [6] of 17 µM (≈ 35.9 µg/mL). For the same compound, the MIC [7] was 30.3 µM (≈ 63.9 µg/mL).
`CC(C)C[C@H](NC(=O)[C@H](CCCCN)NC(=O)[C@H](CCCCN)NC(=O)CN)C(=O)N[C@@H](CC(C)C)C(=O)N[C@@H](Cc1c[nH]c2ccccc12)C(=O)N[C@@H](CC(C)C)C(=O)N[C@@H](CC(C)C)C(=O)N[C@@H](CCCCN)C(=O)N[C@@H](CCCCN)C(=O)NCC(N)=O` [GKKLLWLLKKG] showed an MIC (Escherichia coli K88) of 16 µM (≈ 20.5 µg/mL), an MIC [8] of no less than 64 µM and an MIC [9] of no less than 128 µM. The MIC [10] was no less than 128 µM, the MIC [11] was no less than 128 µM and the MIC [12] was no less than 128 µM. For the same compound, the MIC [13] was greater than 128 µM, the MIC [14] was 64 µM (≈ 82.1 µg/mL) and the MIC [15] was no less than 64 µM. The MIC [16] was 16 µM (≈ 20.5 µg/mL), the MIC [17] was greater than 128 µM and the MIC [18] was greater than 128 µM. It also gave an MIC [19] greater than 128 µM, an MIC [20] greater than 128 µM and an MIC [21] of no less than 128 µM.
With `NC(N)=NCCC[C@H](NC(=O)[C@H](Cc1cnc[nH]1)NC(=O)[C@H](Cc1c[nH]c2ccccc12)NC(=O)[C@H](Cc1ccccc1)NC(=O)[C@H](CCCN=C(N)N)NC(=O)[C@H](CCCN=C(N)N)NC(=O)[C@H](Cc1c[nH]c2ccccc12)NC(=O)[C@@H](N)Cc1cnc[nH]1)C(=O)O` [HWRRFWHR] the MIC (Bacillus cereus AS1.126) was 3.13 µM (≈ 4.01 µg/mL), the MIC [22] was no less than 100 µM and the MIC [23] was 12.5 µM (≈ 16 µg/mL). For the same compound, the MIC [24] was 12.5 µM (≈ 16 µg/mL), the MIC (Escherichia coli AS1.349) was 12.5 µM (≈ 16 µg/mL) and the MIC [25] was no less than 100 µM. For the same compound, the MIC [26] was no less than 100 µM, the MIC [27] was 25 µM (≈ 32 µg/mL) and the MIC [28] was 12.5 µM (≈ 16 µg/mL). It also gave an MIC [29] of 12.5 µM (≈ 16 µg/mL).
In the case of `CC[C@H](C)[C@H](N)C(=O)N[C@@H](CC(N)=O)C(=O)N[C@@H](Cc1c[nH]c2ccccc12)C(=O)N[C@@H](CCCCN)C(=O)NCC(=O)N[C@H](C(=O)N[C@@H](C)C(=O)N[C@@H](C)C(=O)N[C@@H](CCSC)C(=O)N[C@@H](C)C(=O)N[C@@H](CCCCN)C(=O)N[C@@H](CCCCN)C(=O)N[C@@H](CC(C)C)C(=O)N[C@@H](C)C(N)=O)[C@@H](C)CC` [INWKGIAAMAKKLA], the MIC (Escherichia coli INV-a) is reported as no less than 33 µM and the MIC [30] is reported as 21 µM (≈ 31.8 µg/mL).
`CC[C@H](C)[C@H](N)C(=O)N[C@@H](CC(N)=O)C(=O)N[C@@H](Cc1c[nH]c2ccccc12)C(=O)N[C@@H](CC(C)C)C(=O)N[C@@H](CCCCN)C(=O)N[C@H](C(=O)N[C@@H](C)C(=O)N[C@@H](CCCCN)C(=O)N[C@@H](CCCCN)C(=O)N[C@H](C(=O)N[C@@H](CCCCN)C(=O)NCC(=O)N[C@@H](CCSC)C(=O)N[C@@H](CC(C)C)C(N)=O)C(C)C)[C@@H](C)CC` [INWLKIAKKVKGML] showed an MIC [31] of 18.9 µM (≈ 31 µg/mL), an MIC [32] of 18.9 µM (≈ 31 µg/mL) and an MIC [3] of 9.51 µM (≈ 15.6 µg/mL). The MIC [33] was 9.5 µM (≈ 15.6 µg/mL), the MIC [34] was 19 µM (≈ 31.2 µg/mL) and the MIC [35] was 0.609 µM (≈ 0.999 µg/mL). The MIC [36] was 9.74 µM (≈ 16 µg/mL), the MIC [37] was 9.74 µM (≈ 16 µg/mL) and the MIC [4] was 18.9 µM (≈ 31 µg/mL). For the same compound, the MIC [38] was 2.44 µM (≈ 4 µg/mL), the MIC [39] was 1.22 µM (≈ 2 µg/mL) and the MIC [40] was 4.75 µM (≈ 7.8 µg/mL). For the same compound, the MIC [41] was 9.5 µM (≈ 15.6 µg/mL), the MIC [42] was 4.87 µM (≈ 8 µg/mL) and the MIC [43] was 9.74 µM (≈ 16 µg/mL). For the same compound, the MIC [44] was 18.9 µM (≈ 31 µg/mL), the MIC [17] was 4.87 µM (≈ 8 µg/mL) and the MIC [45] was 2.44 µM (≈ 4 µg/mL). For the same compound, the MIC [46] was 2.44 µM (≈ 4 µg/mL), the MIC [47] was 4.87 µM (≈ 8 µg/mL) and the MIC [20] was 1.22 µM (≈ 2 µg/mL). It also gave an MIC [48] of 4.87 µM (≈ 8 µg/mL) and an MIC [49] of 0.609 µM (≈ 0.999 µg/mL).
